Measurements reported in the OPERA property sets (Mansouri et al. 2018).
In brackets after ≈: the same amount, converted by molar mass.

Settings: not given

Row | logP | Structure (SMILES)
1 | 3.25 | O=[N+]([O-])c1ccc(Br)c(Cl)c1
2 | 2.61 | CNC(=O)Nc1ccc(C)c(Cl)c1
3 | 1.59 | Cc1cc(NC(N)=O)ccc1F
4 | 2.94 | CNC(=O)Nc1ccc(Cl)c(Cl)c1
5 | 1.73 | COc1cccc(NC(=O)N(C)C)c1
6 | 3.3 | CCCCOC(=O)Nc1ccccc1
7 | 1.37 | COc1ccc(NC(N)=O)cc1Cl
8 | 2.65 | O=C(Nc1ccccc1)NC1CCCC1
9 | 2.18 | CNC(=O)Nc1cccc(Cl)c1
10 | 2.8 | CCCOC(=O)Nc1ccccc1
11 | 0.83 | COc1ccc(NC(=O)N(C)C)cc1

Row | Structure (SMILES) | logP
12 | NC(=O)Nc1cccc(C(F)(F)F)c1 | 2.31
13 | CON(C)C(=O)Nc1ccc(Br)cc1 | 2.38

Same assay, conditions: 25 °C

Row | solubility | Structure (SMILES)
14 | 8.11 mM (≈ 1210 µg/mL) | CC(=O)Nc1cccc(C)c1
15 | 39.8 mM (≈ 6750 µg/mL) | CC(=O)Nc1ccccc1Cl
